# Laboratory results taken from PubChem BioAssay (NCI).
# Values joined by “and” are separate entries in the source; they are usually repeats but may differ in a detail not shown here. Equal values may be shown once.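 In this assay, cells in 96-well plates receive the compound at five concentrations for 48 hours. Endpoints are linearly interpolated between the surrounding concentrations. GI50 marks 50% less growth. Definition used: TGI = concentration required for complete inhibition of growth.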
# Tests used:
# Experiment in all cases: growth of human tumour cells (NCI), 48 h
# SNB-19 CNS = system: SNB-19 CNS
# UACC-257 melanoma = system: UACC-257 melanoma
# NCI-H23 lung = system: NCI-H23 lung
# SK-OV-3 ovarian = system: SK-OV-3 ovarian
# OVCAR-8 ovarian = system: OVCAR-8 ovarian
# HOP-62 NSCLC = system: HOP-62 NSCLC
# LOX IMVI melanoma = system: LOX IMVI melanoma
# OVCAR-3 ovarian = system: OVCAR-3 ovarian
# UACC-62 melanoma = system: UACC-62 melanoma
# MDA-MB-231 breast = system: MDA-MB-231 breast
SMILES,TGI (SNB-19 CNS) [µM],TGI (UACC-257 melanoma) [µM],TGI (NCI-H23 lung) [µM],TGI (SK-OV-3 ovarian) [µM],TGI (OVCAR-8 ovarian) [µM],TGI (HOP-62 NSCLC) [µM],TGI (LOX IMVI melanoma) [µM],TGI (OVCAR-3 ovarian) [µM],TGI (UACC-62 melanoma) [µM],TGI (MDA-MB-231 breast) [µM],GI50 (UACC-257 melanoma) [µM],GI50 (NCI-H23 lung) [µM],GI50 (SK-OV-3 ovarian) [µM],GI50 (OVCAR-8 ovarian) [µM],GI50 (HOP-62 NSCLC),GI50 (LOX IMVI melanoma) [µM],GI50 (OVCAR-3 ovarian) [µM],GI50 (UACC-62 melanoma) [µM],GI50 (SNB-19 CNS) [µM],GI50 (MDA-MB-231 breast) [µM]
CC1=C(C(=O)Nc2cc(=O)n(C)c(=O)n2C)C(c2ccc([N+](=O)[O-])cc2)C(C(=O)Nc2cc(=O)n(C)c(=O)n2C)=C(C)N1,> 100,> 100,> 100,> 100,> 100,> 100,> 100,> 100,> 100,–,–,–,–,–,–,–,–,–,–,–
Cc1ccc(C2NC(=O)c3ccccc3N2)s1 (stereo not given),> 100,–,58.2,91.6,54.2,> 100,> 100,50.2,> 100,–,–,–,–,–,–,–,–,–,–,–
CC(=O)OC1CC2Oc3ccc(C)cc3C(C)(O2)C1=O (stereo not given),> 100,> 100,> 100,> 100,> 100,> 100,> 100,> 100,> 100,–,–,–,–,–,–,–,–,–,–,–
O=C(Cc1nc2ccccc2s1)C(=O)Nc1cccc(Cl)c1,> 100,> 100,> 100,> 100,> 100,> 100,> 100,> 100,> 100,–,–,–,–,–,–,–,–,–,–,–
O=C(Cc1csc(-c2nc(CC(=O)NNc3ccccc3)cs2)n1)NNc1ccccc1,> 100,> 100,> 100,> 100,> 100,> 100,43.7,> 100,> 100,–,–,–,–,–,–,–,–,–,–,–
COc1ccc(C(=O)C(c2ccc(OC)cc2)C2OC(=O)C(Cl)=C2Cl)cc1 (stereo not given),> 100,> 100,> 100,> 100,> 100,> 100,> 100,> 100,> 100,–,–,–,–,–,–,–,–,–,–,–
CN(/N=C/c1cccc2cccnc12)c1ccc([N+](=O)[O-])cc1,> 100,> 100,> 100,> 100,> 100,> 100,> 100,> 100,> 100,–,–,–,–,–,–,–,–,–,–,–
CC(=O)O[C@@H]1[C@@H](O)C2=C3[C@]4(C)[C@@H]1C(C)(C)C(=O)C[C@@H]4[C@]3(O)[C@H](OC(C)=O)[C@@]1(C[C@@H]1C)C2=O,61.5,37.2,> 100,52.6,34.2,–,30.5,36.5,33.2,37.7,–,–,–,–,–,–,–,–,–,–
O=c1cc(-c2ccccc2)oc2cc(O)cc(O)c12,88.8,62.3,62.8,67,–,> 100,46.8,82.1,76.5,–,–,–,–,–,–,–,–,–,–,–
CN(C)CCNC(=O)c1cccc2c(Nc3ccc(S(N)(=O)=O)cc3)c3ccccc3nc12,10.7,9.83,5.39,3.59,3.73,11.6,2.59,5.85,3.42,–,–,–,–,–,–,–,–,–,–,–
COc1cc(O)c2c(c1)C(=O)C=C(Cl)C2=O,> 100,> 100,> 100,> 100,> 100,–,> 100,> 100,> 100,–,–,–,–,–,–,–,–,–,–,–
CN(C)CCSc1cccc(-c2cc(-c3cccc(SCCN(C)C)c3)nc(SCCN(C)C)n2)c1,–,3.02,15.3,45.5,2.78,30.2,3.03,21.8,32,–,–,–,–,–,–,–,–,–,–,–
CC1(C)OB(O)OC1(C)C,> 100,> 100,> 100,> 100,> 100,> 100,> 100,> 100,> 100,–,–,–,–,–,–,–,–,–,–,–
O=C(O)/C(Cl)=C(\Cl)C(=O)NC1C2CC3CC(C2)CC1C3 (stereo not given),> 100,> 100,> 100,> 100,> 100,> 100,> 100,> 100,> 100,–,–,–,–,–,–,–,–,–,–,–
COC1=CC23CCCN2CCc2cc4c(cc2C3C1O)OCO4 (stereo not given),67.8,> 100,> 100,> 100,> 100,–,> 100,–,> 100,> 100,–,–,–,–,–,–,–,–,–,–
O=C1c2ccccc2NC1(c1ccccc1)c1c(-c2ccccc2)[nH]c2ccccc12 (stereo not given),> 100,> 100,> 100,> 100,> 100,> 100,–,> 100,> 100,–,–,–,–,–,–,–,–,–,–,–
O=S(=O)(SCc1ccccc1)C(c1ccccc1)c1ccccc1,> 100,> 100,77.6,> 100,43.1,> 100,> 100,> 100,85.7,–,–,–,–,–,–,–,–,–,–,–
NCCN.NCCN.O=C[O-].O=C[O-].[Co+3].[O-][Cl+3]([O-])([O-])[O-],–,> 100,> 100,> 100,> 100,> 100,> 100,> 100,> 100,–,> 100,> 100,> 100,> 100,> 100 µM,> 100,> 100,> 100,–,–
CC(=O)C1C(=O)NC(=O)C1=O (stereo not given),> 100,> 100,> 100,> 100,> 100,> 100,> 100,> 100,> 100,–,–,–,–,–,–,–,–,–,–,–
CC(C)CC(=O)Nc1n[nH]c2c1CN(C(=O)C1CCN(C)CC1)C2(C)C,> 10,> 10,5.4,> 10,> 10,> 10,8.63,5.25,–,> 10,1.19,0.352,2.53,1.3,1.2 µM,0.209,0.435,–,1.05,0.894
CCN(CC)CCCC(C)Nc1ccnc2ccc3nn(C)nc3c12 (stereo not given),> 100,> 100,> 100,> 100,> 100,> 100,41.1,–,> 100,–,–,–,–,–,–,–,–,–,–,–
COc1cc(Nc2ncc(F)c(Nc3ccc4c(n3)NC(=O)C(C)(C)O4)n2)cc(OC)c1OC,> 100,> 10,> 10,> 100,> 100,> 100,> 10,> 100,–,> 10,> 10,6.29,–,> 100,1.38 µM and 4.74 µM,1.57,> 100,–,> 100,3.09
